The text below walks through data of publication PMC8300687, “A Fine-Tuned Lipophilicity/Hydrophilicity Ratio Governs Antibacterial Potency and Selectivity of Bifurcated Halogen Bond-Forming NBTIs” (Antibiotics, 2021).

One data set has as its target T1, S. aureus DNA gyrase (Staphylococcus aureus, UniProt P20831).
T1 construct: purchased Inspiralis (Norwich, UK)
The conditions noted are these: cited from earlier work.

For a further data set, the system named is S. aureus. Also noted: method as in PMID 31140866. Particulars: Figure 2, previous study ref 18; cited from earlier work.
The subject of another data set is E. coli. On the set-up: method as in PMID 31140866. The conditions noted are these: Figure 2, previous study ref 18; cited from earlier work.
A further data set is described as follows: in vitro. The conditions noted are these: PAMPA. As for the experimental part:
(§1) Prior to the measurements of solubility and permeability isocratic HPLC methods were developed. […] The individual method parameters for each compound are given in the Supplementary Materials Table S1.
A 96-well precoated three-layer PAMPA plates (Corning® Gentest™ Pre-coated PAMPA Plate System, Corning, NY, USA) were used according to the manufacturer’s instructions and as described previously with 300 µL of the donor solutions in the bottom compartment and 200 µL of the acceptor solution (pH 7.4 PBS) in the upper compartment at 37 °C and a 4-h incubation time. The initial and end donor solutions were injected at a 5 µL injection volume. The initial donor solutions were also diluted 100-fold and injected at a 100 µL injection volume to serve as external references for the end acceptor solutions which were injected at the same injection volume. The permeability calculations were made with a manufacturer-provided Excel spreadsheet directly from the measured peak areas accounting for the relevant dilutions and injection volumes.

Data set [1] is described as follows: Equilibrium solubility at pH 6.8. Particulars: 37 °C, pH 6.8, aqueous buffer, thermodynamic from solid. Here is the method: as §1
The vials were then placed in a homogenizer (Next Advance Bullet Blender, Troy, NY, USA) for 5 min ad speed setting “2” after which they were kept in a thermostated shaker (Tehtnica HeatMix, Domel, Slovenia) at 37 °C and 1200 RPM for 24 h. […] Twenty µL of these solutions were injected for the HPLC analysis by the described methods (Supplementary Materials Table S1). External standards for calibration were made in a mobile phase with 5% acetonitrile in a range of 30–90 mg/L and injected at 20 µL injection volumes.

The next data set relates to E. coli N43 (CGSC# 5583). The data set is described as follows: MIC broth microdilution, E. coli N43. The class given is cell-based. Particulars: Escherichia coli, read-out: MIC E. coli N43 (CGSC# 5583). As for the experimental part:
(§2) Antimicrobial testing was carried out by the broth microdilution method in 96-well plate format following the Clinical and Laboratory Standards Institute (CLSI) guidelines and European Committee on Antimicrobial Susceptibility Testing (EUCAST) recommendations. Bacterial suspension of specific bacterial strain equivalent to 0.5 McFarland turbidity standard was diluted with cation-adjusted Mueller Hinton broth with TES (Thermo Fisher Diagnostic, Landsmeer, The Netherlands), to obtain a final inoculum of 10^5 CFU/mL. Compounds dissolved in DMSO and inoculum were mixed together and incubated for 18–20 h at 35 °C. Suspensions of Mycobacterium sp. were prepared into a tube of Middelbrook 7H9 broth supplemented with 5% OADC (Thermo Scientific, Trek Diagnostic Systems, West Sussex, UK) and incubated for at least 10 days. After incubation the minimal inhibitory concentration (MIC) values were determined by visual inspection as the lowest dilution of compounds showing no turbidity. Tetracycline was used as a positive control on every assay plate.

For a further data set, the system named is E. coli (ATCC 25922). The data set is described as follows: MIC broth microdilution, E. coli ATCC 25922. Particulars: Escherichia coli, ATCC25922; read-out: MIC E. coli (ATCC 25922). The data set is classed as cell-based. Here is the method:
as §2

Structures are written as SMILES. Converted amounts (≈) assume the structure as drawn. Where two headings read alike, the source gives them in different places. A value given as a limit tells only on which side of the number the result lay.

T1 sequence (P20831 whole entry): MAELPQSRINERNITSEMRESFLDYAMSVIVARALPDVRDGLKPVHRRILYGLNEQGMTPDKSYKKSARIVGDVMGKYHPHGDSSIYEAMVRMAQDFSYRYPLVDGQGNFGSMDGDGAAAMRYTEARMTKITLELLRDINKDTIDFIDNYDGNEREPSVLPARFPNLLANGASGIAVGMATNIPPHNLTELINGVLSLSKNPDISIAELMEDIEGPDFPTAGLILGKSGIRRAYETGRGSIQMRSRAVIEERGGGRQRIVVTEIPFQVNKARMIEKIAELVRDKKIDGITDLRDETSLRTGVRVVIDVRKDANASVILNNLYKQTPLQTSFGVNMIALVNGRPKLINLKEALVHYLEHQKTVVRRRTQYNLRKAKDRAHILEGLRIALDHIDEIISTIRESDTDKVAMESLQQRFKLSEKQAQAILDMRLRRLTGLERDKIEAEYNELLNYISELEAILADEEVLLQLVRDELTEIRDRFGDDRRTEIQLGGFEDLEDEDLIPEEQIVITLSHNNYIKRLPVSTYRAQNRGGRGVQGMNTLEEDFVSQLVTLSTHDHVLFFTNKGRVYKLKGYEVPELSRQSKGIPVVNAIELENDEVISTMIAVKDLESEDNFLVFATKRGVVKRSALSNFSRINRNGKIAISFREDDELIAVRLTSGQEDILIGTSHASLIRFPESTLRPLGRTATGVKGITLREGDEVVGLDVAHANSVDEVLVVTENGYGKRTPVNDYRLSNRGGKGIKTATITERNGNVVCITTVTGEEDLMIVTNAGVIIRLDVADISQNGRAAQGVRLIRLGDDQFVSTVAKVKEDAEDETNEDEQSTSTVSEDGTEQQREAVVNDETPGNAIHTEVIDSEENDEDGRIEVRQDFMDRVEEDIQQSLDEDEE
T1 sequence (P0A0K8 whole entry partner): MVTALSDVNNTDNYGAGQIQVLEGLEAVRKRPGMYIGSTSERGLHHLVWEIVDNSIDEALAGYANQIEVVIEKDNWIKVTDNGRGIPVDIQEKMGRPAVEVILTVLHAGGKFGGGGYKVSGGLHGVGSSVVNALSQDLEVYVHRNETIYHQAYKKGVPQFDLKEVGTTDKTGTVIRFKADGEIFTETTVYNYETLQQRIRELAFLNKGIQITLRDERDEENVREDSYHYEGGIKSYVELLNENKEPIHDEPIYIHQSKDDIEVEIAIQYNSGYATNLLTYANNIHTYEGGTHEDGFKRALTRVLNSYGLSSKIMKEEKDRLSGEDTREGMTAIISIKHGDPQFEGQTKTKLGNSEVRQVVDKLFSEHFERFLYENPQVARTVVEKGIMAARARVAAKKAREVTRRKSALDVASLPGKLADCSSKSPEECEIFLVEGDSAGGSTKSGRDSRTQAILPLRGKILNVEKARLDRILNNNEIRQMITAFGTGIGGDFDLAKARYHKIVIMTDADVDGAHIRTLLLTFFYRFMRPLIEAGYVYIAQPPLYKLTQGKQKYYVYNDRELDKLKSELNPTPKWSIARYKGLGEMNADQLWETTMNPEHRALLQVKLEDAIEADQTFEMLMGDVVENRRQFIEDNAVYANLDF

Regarding `COc1ccc2ncc(F)c(C[C@H](O)[C@@H]3CC[C@@H](NCc4cc5c(nn4)OCCS5)CO3)c2n1` [ACT3870424], at S. aureus DNA gyrase (Table S2, supplement ref 4), the half-maximal inhibitory concentration (IC50) is 125 nM.

Turning to `COc1ccc2nccc(NC(=O)C3CCC(NCc4cnn(-c5ccccc5)c4)CC3)c2c1` (stereo not shown) [Compound 131], the IC50 at S. aureus DNA gyrase (Table S2, supplement ref 1) was 830 nM. In addition, the “MIC S. aureus” value with S. aureus is 2 µg/mL (≈ 4.39 µM). The “MIC E. coli” value in the data set on E. coli is 64 µg/mL (≈ 140 µM).

Regarding `C[C@H]1O[C@@H](O[C@H]2[C@@H](O)C[C@H](O[C@H]3[C@@H](O)C[C@H](O[C@H]4CC[C@@]5(C)[C@H](CC[C@@H]6[C@@H]5C[C@@H](O)[C@]5(C)[C@@H](C7=CC(=O)OC7)CC[C@]65O)C4)O[C@@H]3C)O[C@@H]2C)C[C@H](O)[C@@H]1O` [Di goxin, digoxin, reference compound], in the data set “in vitro”, the “PAMPA permeability classification [low/high]” value is on record as “int erm ediat e”. The Papp in “in vitro” (pH 7.4) is 0.58 ×10⁻⁶ cm/s. In data set [1], this compound showed a solubility (thermodynamic) at 24 h of 52 µg/mL (≈ 66.6 µM).

`O=c1ccc2ncc(=O)n3c2n1C[C@H]3CN1CCC(NCc2cc3c(cn2)OCCC3)CC1` [Gepotidacin, reference compound]: the results for the minimal inhibitory concentration (MIC) with E. coli N43 (CGSC# 5583) and in the data set on E. coli (ATCC 25922) were 0.016 µg/mL (≈ 0.0357 µM) and 1 µg/mL (≈ 2.23 µM), respectively.

For `COCCc1ccc(OCC(O)CNC(C)C)cc1` (stereo not shown) [Metoprolol, metoprolol, reference compound], the Papp at 4 h was over 2.7 ×10⁻⁶ cm/s in the data set “in vitro” and 4.2 ×10⁻⁶ cm/s in the data set “in vitro” (pH 7.4). Further, the thermodynamic solubility at 24 h in data set [1] was 30400 µg/mL (≈ 114000 µM).

Compound `Cn1c(=O)c2[nH]cnc2n(C)c1=O` [Theophylli n, theophylline, reference compound] had a thermodynamic solubility at 24 h in data set [1] of 8220 µg/mL (≈ 45600 µM).
